Measured values: BigSolDB 2.1

O=C(O)CC(O)C(=O)O (configuration not stated)
solubility (mole fraction)
Settings | 303.2 K | 308.2 K | 313.2 K | 318.2 K | 323.2 K | 328.2 K | 333.2 K
in 1,4-dioxane | 0.14 | 0.153 | 0.16 | 0.168 | 0.177 | 0.192 | 0.21
in THF | 0.145 | 0.156 | 0.191 | 0.199 | 0.219 | 0.235 | 0.253
in acetonitrile | 0.007 | 0.009 | 0.011 | 0.012 | 0.015 | 0.017 | 0.021
in ethanol | 0.082 | 0.091 | 0.101 | 0.115 | 0.121 | 0.129 | 0.134
in isopropanol | 0.036 | 0.045 | 0.055 | 0.071 | 0.094 | 0.118 | 0.134
in water | 0.066 | 0.084 | 0.106 | 0.132 | 0.154 | 0.17 | 0.184
